What was measured:
[1] = target: Matrix metalloproteinase-9 (Homo sapiens, UniProt P14780); assay type: cell-based;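 also: inhibition of isolated MMP-9 enzyme activity toward a synthetic peptide substrate, from the DrugMatrix protease screening panel; in other assays of this panel Not Active means under 50% inhibition at 10 µM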
[2] = DRUGMATRIX: Nicotinic Acetylcholine radioligand binding (ligand: [125I] Epibatidine); assay type: cell membranes, Membrane; conditions: imr-32; Not Active = under 50% inhibition at 10 µM
[3] = DRUGMATRIX: GABAA, Flunitrazepam, Central radioligand binding (ligand: [3H] Flunitrazepam); assay type: cell membranes, Rattus norvegicus, Wistar, Brain, Membrane; conditions: Not Active = under 50% inhibition at 10 µM
[4] = target: Cytochrome P450 2C9 (Homo sapiens, UniProt P11712); conditions: bti-tn-5b1-4; also: in other assays of this panel Not Active means under 50% inhibition at 10 µM
[5] = target: Vascular endothelial growth factor receptor 1 (Homo sapiens, UniProt P17948); assay type: cell-based; conditions: huvec; also: in other assays of this panel Not Active means under 50% inhibition at 10 µM
[6] = target: T1, Calcitonin receptor (Homo sapiens, UniProt P30988); assay type: cell membranes, Membrane; conditions: t47d; also: in other assays of this panel Not Active means under 50% inhibition at 10 µM
T1 sequence (P30988 whole entry): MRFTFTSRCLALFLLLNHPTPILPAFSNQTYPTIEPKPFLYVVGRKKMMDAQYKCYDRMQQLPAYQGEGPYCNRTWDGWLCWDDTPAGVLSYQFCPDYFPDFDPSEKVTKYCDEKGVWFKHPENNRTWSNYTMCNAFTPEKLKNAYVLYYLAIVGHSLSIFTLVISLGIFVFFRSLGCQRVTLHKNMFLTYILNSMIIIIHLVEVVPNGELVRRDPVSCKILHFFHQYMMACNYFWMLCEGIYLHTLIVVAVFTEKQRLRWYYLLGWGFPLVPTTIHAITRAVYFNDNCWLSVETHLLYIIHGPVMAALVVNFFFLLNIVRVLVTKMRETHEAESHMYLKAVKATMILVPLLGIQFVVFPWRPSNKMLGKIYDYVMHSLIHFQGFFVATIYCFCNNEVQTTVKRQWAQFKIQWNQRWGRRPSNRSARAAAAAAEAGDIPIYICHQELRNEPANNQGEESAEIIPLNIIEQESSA

[7] = target: Kappa-type opioid receptor (Homo sapiens, UniProt P41145); assay: DRUGMATRIX: Opiate kappa (OP2, KOP) radioligand binding (ligand: [3H] Diprenorphine); assay type: cell membranes, HEK293, Membrane; conditions: hek293; Not Active = under 50% inhibition at 10 µM
[8] = DRUGMATRIX: ATPase, Na+/K+ enzyme inhibition (substrate: ATP); assay type: tissue-based, Sus scrofa, Heart; conditions: Not Active = under 50% inhibition at 10 µM
[9] = target: T2, Muscarinic acetylcholine receptor M5 (Homo sapiens, UniProt P08912); assay type: cell membranes, CHO-K1, Membrane; conditions: cho-k1; also: in other assays of this panel Not Active means under 50% inhibition at 10 µM
T2 sequence (P08912 whole entry): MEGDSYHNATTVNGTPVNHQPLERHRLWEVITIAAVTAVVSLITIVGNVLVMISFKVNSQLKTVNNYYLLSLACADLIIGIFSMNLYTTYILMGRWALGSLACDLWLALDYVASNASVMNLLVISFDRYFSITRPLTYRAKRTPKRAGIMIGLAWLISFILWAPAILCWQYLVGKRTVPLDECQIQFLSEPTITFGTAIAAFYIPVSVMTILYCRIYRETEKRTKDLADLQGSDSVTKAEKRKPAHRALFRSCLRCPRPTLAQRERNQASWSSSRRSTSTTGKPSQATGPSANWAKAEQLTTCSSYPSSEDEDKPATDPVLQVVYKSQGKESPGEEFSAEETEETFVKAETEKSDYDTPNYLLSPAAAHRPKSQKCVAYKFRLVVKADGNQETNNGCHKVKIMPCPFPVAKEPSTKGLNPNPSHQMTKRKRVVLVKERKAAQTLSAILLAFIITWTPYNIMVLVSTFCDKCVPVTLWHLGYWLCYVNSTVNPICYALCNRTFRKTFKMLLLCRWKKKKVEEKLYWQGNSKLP

[10] = DRUGMATRIX: Phorbol Ester radioligand binding (ligand: [3H] PDBu); assay type: cell membranes, Mus musculus, ICR, Brain, Membrane; conditions: Not Active = under 50% inhibition at 10 µM
[11] = target: T3, Type-2 angiotensin II receptor (Homo sapiens, UniProt P50052); assay type: cell-based; conditions: cho-k1; also: in other assays of this panel Not Active means under 50% inhibition at 10 µM
T3 sequence (P50052 whole entry): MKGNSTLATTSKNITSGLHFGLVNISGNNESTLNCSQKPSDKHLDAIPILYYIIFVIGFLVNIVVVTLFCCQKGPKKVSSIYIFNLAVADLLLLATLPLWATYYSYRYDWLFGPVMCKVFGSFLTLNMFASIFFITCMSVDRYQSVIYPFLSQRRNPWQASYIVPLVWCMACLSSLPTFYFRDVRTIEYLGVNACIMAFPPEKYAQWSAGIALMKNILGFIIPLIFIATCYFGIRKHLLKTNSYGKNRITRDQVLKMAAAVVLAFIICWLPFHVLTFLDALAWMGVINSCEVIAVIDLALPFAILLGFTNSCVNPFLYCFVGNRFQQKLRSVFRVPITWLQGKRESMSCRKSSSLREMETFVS

[12] = target: T4, Caspase-1 (Homo sapiens, UniProt P29466); set-up: species or system Escherichia coli
T4 sequence (P29466 whole entry): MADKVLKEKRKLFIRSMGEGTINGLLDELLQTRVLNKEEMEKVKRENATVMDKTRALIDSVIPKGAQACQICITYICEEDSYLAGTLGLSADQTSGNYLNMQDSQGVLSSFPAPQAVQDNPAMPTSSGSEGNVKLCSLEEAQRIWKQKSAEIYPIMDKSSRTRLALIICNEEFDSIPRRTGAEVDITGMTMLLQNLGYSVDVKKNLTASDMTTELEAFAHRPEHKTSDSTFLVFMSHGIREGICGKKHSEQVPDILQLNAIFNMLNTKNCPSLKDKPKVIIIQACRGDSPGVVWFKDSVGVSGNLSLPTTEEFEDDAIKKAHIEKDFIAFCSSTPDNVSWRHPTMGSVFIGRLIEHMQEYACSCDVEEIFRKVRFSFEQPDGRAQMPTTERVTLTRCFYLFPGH

Sequence of Kappa-type opioid receptor (P41145 whole entry): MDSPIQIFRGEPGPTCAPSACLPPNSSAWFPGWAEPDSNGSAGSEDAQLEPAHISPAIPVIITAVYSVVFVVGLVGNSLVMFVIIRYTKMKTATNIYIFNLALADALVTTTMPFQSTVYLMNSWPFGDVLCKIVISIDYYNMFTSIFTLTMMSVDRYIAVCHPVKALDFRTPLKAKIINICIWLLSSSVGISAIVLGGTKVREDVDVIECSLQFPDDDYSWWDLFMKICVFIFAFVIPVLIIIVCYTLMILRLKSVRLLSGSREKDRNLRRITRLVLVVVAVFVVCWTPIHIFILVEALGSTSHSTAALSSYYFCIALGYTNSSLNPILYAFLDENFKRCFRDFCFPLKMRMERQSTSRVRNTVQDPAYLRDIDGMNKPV
Sequence of Matrix metalloproteinase-9 (P14780 whole entry): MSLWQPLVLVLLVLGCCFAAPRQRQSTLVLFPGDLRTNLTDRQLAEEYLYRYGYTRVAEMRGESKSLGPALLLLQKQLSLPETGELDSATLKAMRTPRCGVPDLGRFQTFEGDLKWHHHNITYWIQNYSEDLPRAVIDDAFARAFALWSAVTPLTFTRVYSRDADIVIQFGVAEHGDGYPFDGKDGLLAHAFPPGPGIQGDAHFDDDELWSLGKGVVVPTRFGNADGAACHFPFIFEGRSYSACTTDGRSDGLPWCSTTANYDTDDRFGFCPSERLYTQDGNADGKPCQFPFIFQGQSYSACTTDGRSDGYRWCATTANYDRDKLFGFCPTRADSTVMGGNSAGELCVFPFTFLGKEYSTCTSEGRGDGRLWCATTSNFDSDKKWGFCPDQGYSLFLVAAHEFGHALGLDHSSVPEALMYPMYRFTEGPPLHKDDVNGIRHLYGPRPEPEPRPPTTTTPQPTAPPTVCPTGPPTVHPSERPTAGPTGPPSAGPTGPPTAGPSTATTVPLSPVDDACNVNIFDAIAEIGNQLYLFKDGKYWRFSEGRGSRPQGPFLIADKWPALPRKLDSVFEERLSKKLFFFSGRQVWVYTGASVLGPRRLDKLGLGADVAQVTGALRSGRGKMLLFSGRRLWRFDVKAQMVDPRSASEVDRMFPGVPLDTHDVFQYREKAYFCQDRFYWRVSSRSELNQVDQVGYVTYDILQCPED
Sequence of Vascular endothelial growth factor receptor 1 (P17948 whole entry): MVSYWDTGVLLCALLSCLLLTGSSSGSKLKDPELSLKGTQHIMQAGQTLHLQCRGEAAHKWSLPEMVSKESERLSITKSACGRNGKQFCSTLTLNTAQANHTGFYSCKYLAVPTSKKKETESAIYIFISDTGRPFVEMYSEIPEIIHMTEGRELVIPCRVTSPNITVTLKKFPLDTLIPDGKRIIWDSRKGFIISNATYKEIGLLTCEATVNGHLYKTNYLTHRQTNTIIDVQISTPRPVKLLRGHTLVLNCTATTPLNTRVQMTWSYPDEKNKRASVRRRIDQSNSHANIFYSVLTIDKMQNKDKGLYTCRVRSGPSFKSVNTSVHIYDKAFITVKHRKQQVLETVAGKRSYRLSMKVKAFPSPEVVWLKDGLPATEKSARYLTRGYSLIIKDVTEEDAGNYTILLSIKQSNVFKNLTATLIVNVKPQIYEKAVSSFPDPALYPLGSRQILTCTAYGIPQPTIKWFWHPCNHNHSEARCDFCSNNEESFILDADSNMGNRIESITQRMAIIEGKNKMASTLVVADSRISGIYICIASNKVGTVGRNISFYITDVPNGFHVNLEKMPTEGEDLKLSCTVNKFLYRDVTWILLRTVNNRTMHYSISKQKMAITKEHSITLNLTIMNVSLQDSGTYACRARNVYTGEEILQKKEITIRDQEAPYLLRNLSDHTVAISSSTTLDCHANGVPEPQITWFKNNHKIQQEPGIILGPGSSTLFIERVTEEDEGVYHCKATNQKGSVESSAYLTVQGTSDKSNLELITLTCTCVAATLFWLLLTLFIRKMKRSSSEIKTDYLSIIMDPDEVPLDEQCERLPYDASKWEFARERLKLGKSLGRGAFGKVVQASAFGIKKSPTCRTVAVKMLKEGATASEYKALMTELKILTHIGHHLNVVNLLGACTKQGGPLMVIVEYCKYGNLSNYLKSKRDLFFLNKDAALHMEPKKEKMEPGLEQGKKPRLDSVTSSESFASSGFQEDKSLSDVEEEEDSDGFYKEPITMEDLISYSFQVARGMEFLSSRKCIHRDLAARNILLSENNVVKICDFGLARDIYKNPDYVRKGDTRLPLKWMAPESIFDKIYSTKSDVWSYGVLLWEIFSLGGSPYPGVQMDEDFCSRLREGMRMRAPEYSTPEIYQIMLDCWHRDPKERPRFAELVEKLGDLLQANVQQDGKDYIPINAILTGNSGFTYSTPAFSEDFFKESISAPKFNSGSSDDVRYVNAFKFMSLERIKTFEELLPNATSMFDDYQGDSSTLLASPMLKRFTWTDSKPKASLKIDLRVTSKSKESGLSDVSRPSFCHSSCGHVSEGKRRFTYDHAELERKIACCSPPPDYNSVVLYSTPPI
Sequence of Cytochrome P450 2C9 (P11712 whole entry): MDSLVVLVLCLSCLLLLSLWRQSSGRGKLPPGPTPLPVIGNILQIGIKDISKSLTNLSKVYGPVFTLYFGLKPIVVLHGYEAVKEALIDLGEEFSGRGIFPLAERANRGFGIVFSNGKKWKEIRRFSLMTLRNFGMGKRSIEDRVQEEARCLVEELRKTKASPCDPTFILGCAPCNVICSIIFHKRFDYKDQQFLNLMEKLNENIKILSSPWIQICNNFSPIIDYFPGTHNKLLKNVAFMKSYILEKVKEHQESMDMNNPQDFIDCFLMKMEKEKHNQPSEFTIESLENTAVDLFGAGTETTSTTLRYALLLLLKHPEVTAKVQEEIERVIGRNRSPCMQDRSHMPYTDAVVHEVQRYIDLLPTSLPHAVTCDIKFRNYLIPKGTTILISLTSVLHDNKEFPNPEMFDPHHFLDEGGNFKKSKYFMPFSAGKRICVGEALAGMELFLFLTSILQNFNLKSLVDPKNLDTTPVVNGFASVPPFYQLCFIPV

Row | Structure (SMILES) | IC50 [1] | IC50 [2] | Ki [2] | IC50 [3] | Ki [3] | IC50 [4] | Ki [4] | IC50 [5] | IC50 [6] | IC50 [7] | IC50 [8] | Ki [8] | IC50 [9] | IC50 [10] | Ki [10] | IC50 [11] | IC50 [12] | IC50 ([8]; read-out: IC50)
1 | Nc1nc(=O)[nH]cc1F [FLUCYTOSINE] | Not Active | Not Active | Not Active | Not Active | Not Active | Not Active | Not Active | Not Active | Not Active | Not Active | Not Active | Not Active | Not Active | Not Active | Not Active | Not Active | Not Active | 
2 | CCC1(c2ccccc2)C(=O)NCNC1=O [PRIMIDONE] | Not Active | Not Active | Not Active | Not Active | Not Active | Not Active | Not Active | Not Active | Not Active | Not Active | Not Active | Not Active | Not Active | Not Active | Not Active | Not Active | Not Active | 
3 | CC1(C)[C@@H](O[C@H]2O[C@H](C(=O)O)[C@@H](O)[C@H](O)[C@H]2O[C@@H]2O[C@H](C(=O)O)[C@@H](O)[C@H](O)[C@H]2O)CC[C@]2(C)[C@H]3C(=O)C=C4[C@@H]5C[C@@](C)(C(=O)O)CC[C@]5(C)CC[C@@]4(C)[C@]3(C)CC[C@@H]12 [GLYCYRRHIZIN] | Not Active | Not Active | Not Active | Not Active | Not Active | Not Active | Not Active | Not Active | Not Active | Not Active | Not Active | Not Active | Not Active | Not Active | Not Active | Not Active | Not Active | 
4 | Cn1cnc([N+](=O)[O-])c1Sc1ncnc2nc[nH]c12 [AZATHIOPRINE] | Not Active | Not Active | Not Active | Not Active | Not Active | Not Active | Not Active | Not Active | Not Active | Not Active | Not Active | Not Active | Not Active | Not Active | Not Active | Not Active | Not Active | 
5 | Oc1c(Cl)cc(Cl)cc1Sc1cc(Cl)cc(Cl)c1O [BITHIONOL] | Not Active | Not Active | Not Active | Not Active | Not Active | Not Active | Not Active | Not Active | Not Active | Not Active |  |  | Not Active | Not Active | Not Active | Not Active | Not Active | 5.02 µM
6 | Cc1c(-c2ccccc2)oc2c(C(=O)OCCN3CCCCC3)cccc2c1=O [FLAVOXATE] | Not Active | Not Active | Not Active | Not Active | Not Active | Not Active | Not Active | Not Active | Not Active | Not Active | Not Active | Not Active | Not Active | Not Active | Not Active | Not Active | Not Active | 
7 | COc1ccc2c(c1)c(CC(=O)OCC(=O)O)c(C)n2C(=O)c1ccc(Cl)cc1 [ACEMETACIN] | Not Active | Not Active | Not Active | Not Active | Not Active | Not Active | Not Active | Not Active | Not Active | Not Active | Not Active | Not Active | Not Active | Not Active | Not Active | Not Active | Not Active | 
8 | COc1ccc([C@@H]2Sc3ccccc3N(CCN(C)C)C(=O)[C@@H]2OC(C)=O)cc1 [DILTIAZEM] | Not Active | Not Active | Not Active | Not Active | Not Active | Not Active | Not Active | Not Active | Not Active | Not Active | Not Active | Not Active | Not Active | Not Active | Not Active | Not Active | Not Active | 
9 | NCC[C@H](O)C(=O)N[C@@H]1C[C@H](N)[C@@H](O[C@H]2O[C@H](CN)[C@@H](O)[C@H](O)[C@H]2O)[C@H](O)[C@H]1O[C@H]1O[C@H](CO)[C@@H](O)[C@H](N)[C@H]1O [AMIKACIN] | Not Active | Not Active | Not Active | Not Active | Not Active | Not Active | Not Active | Not Active | Not Active | Not Active | Not Active | Not Active | Not Active | Not Active | Not Active | Not Active | Not Active | 

— ChEMBL document CHEMBL1909046, “DrugMatrix in vitro pharmacology data”
